This note sets out measurements from US20260308158A1, “TARGETING RNAS ASSOCIATED WITH TAUOPATHIES WITH SMALL MOLECULES” (University of Florida Research Foundation, Incorporated, priority 2023, published 2026).

The test system of test [1] is DDPAC MAPT exon 10 mini-gene luciferase reporter. As to the kind of experiment: Luciferase reporter assay of exon 10 splicing, DDPAC mini-gene in HeLa cells. It counts as cell-based. The method, then: (§1) Luciferase-reporter Assay to Study Exon 10 Alternative Splicing. The exon 10 mini-genes, both WT and DDPAC and mutant thereof, fused to firefly luciferase, have been previously described.^18 HeLa cells were seeded in 60 mm diameter dishes and incubated for 12-16 h to 70% confluency. They were then transfected with WT, WT+I17T, DDPAC, or DDPAC+I17T luciferase reporter minigenes using JetPrime (Polyplus Transfection) per the manufacturer's recommended protocol and incubated for 4 h. After transfection, the cells were collected by trypsinization and re-seeded in 96-well plates at 0.2×10^5 cells per well, followed by treatment of compounds after 4 h. Compound stocks prepared in DMSO were diluted in growth medium and added to cells with final DMSO concentration at 0.1% (v/v). After a 48 h treatment period, the cells were washed with 1× DPBS. Each well was added with a mixture of 10 μL WST-1 reagent and 90 μL of growth medium. After incubation at 37° C. for 45 min, absorbance was measured at 450 and 690 nm. A690 as background was subtracted from A450 to obtain A450′. After removal of WST-1/DMEM from wells, the cells were washed again with 1×DPBS and treated with 100 μL of One-Glo EX reagent (Promega, E8110) per well. The plate was incubated at room temperature for 20 min and the luminescence was measured with a […] plate reader (1000 ms integration time). The resulted luminescence was normalized to A450′.

Test [2] concerns DDPAC I17T MAPT exon 10 mini-gene luciferase reporter. As to the kind of experiment: Luciferase reporter assay, DDPAC I17T mutant mini-gene in HeLa cells. It counts as cell-based. As to conditions: Homo sapiens, 48 h, 5 μM (highest dose), read-out: reduction of luciferase activity. The method, then:
as §1, with “After removal of WST-1/DMEM from wells, the cells were washed again with 1×DPBS and treated with 100 μL of One-Glo EX reagent (Promega, E8110) per well.” left out
(Reporter assays use an easily measured gene product as a stand-in for the process of interest.)

For a further test, the system named is WT SRE RNA. As to the kind of experiment: In vitro competitive Chem-CLIP (C-Chem-CLIP), WT SRE RNA. Particulars: 3 at 1.5 μM, read-out: IC50, competition of the binding of 3. The method, then:
In Vitro Chemical Cross-linking and Isolation by Pull Down (Chem-CLIP) and Competitive Chem-CLIP (C-Chem-CLIP). Growth medium [Dulbecco's modified eagle medium (DMEM; corning, 10-013-CM) with 1× Glutagro (corning)] and 10% (v/v) fetal bovine serum (FBS; Sigma, 12003C) was inactivated by heating at 95° C. for 15 min and slowly cooling to room temperature. Approximately 10,000 counts of 32P 5′-end labeled tau WT, DDPAC, WT+I17T, or DDPAC+I17T RNA were folded in 10 μL growth medium by heating at 65° C. for 5 min and slowly cooling to room temperature. Chem-CLIP probe 3 or negative control probe 4 was then added into the folded RNA in a total volume of 20 μL, and the mixtures were incubated at 37° C. for 1 h. For C-Chem-CLIP, dilutions of competing compound 2 were incubated with RNA for 30 min before adding 3. […]
The Chem-CLIP probe 3 or control probe 4 was then clicked to disulfide biotin azide (2 μL of 10 mM solution prepared in DMSO solution per sample; Click Chemistry Tools, catalog no. 1168-10). […] The radioactive signal from bound RNAs (on the beads) and unbound RNAs (in the wash buffer) was measured by using a Beckman Coulter LS6500 Liquid Scintillation Counter as Rbound and Runbound. Enrichment was calculated as the percentage of radiolabeled RNA captured by beads calculated as Rbound/(Rbound+Runbound).

Test [3] relates to DDPAC MAPT mini-gene pre-mRNA. The test can be described thus: Chem-CLIP / C-Chem-CLIP in HeLa cells transfected with DDPAC mini-gene. It counts as cell-based. Particulars: HeLa, DDPAC mini-gene. The method, then:
Measuring Cellular Occupancy by Chem-CLIP and C-Chem-CLIP. LAN5 cells were grown to ~80% confluency in 100 mm diameter dishes. HeLa cells were transfected as described in the Luciferase Reporter Assay to Study Exon 10 Alternative Splicing except they were re-plated in 100 mm diameter dishes and grown to ~80% confluency (~1 day). The cells were then treated with 1.5 μM of 3 or 4 for 12 h. For C-Chem-CLIP, dilutions of competing compounds 1 or 2 were pre-incubated with cells for 12 h prior to adding 3. After addition of 3, the cells were incubated for an additional 12 h. After the treatment period, whether for Chem-CLIP or C-Chem-CLIP studies, the cells were washed with 10 mL of 1×DPBS. Ice-cold 1×DPBS (10 mL) was then added to the plate followed by irradiation with 365 nm light in a UV Stratalinker 2400 (Stratagene). Cells were scraped with a cell scraper, transferred to a 15 mL conical vial, and collected by centrifugation. Total RNA was extracted using TRIzol LS Reagent (Invitrogen) per the manufacturer's protocol. […]
RT-qPCR was performed on RNA samples before and after pull-down as described in Real-Time Quantitative PCR to enable calculation of fold enrichment in the pulled down samples. Relative fold enrichment of tau pre-mRNA was measured using Equation 3: […]

Regarding `COc1cc(N)ncc1CCCN(C)CCCn1cnc2c3ccccc3n(C)c2c1=O` [Compound 2, 3-(3-((3-(6-amino-4-methoxypyridin-3-yl)propyl)(methyl)amino)propyl)-5-methyl-3,5-dihydro-4H-pyrimido[5,4-b]indol-4-one], the “improvement in cellular luciferase reporter assay compared to 1” value in test [1] (2 vs 1) is “at least 10 fold”. Besides, the “exclusion of exon 10 among eight conjugates (reduction of luciferase activity)” value in test [1] (DDPAC mini-gene, HeLa) is “excluded exon 10 to the greatest extent”. Also, the IC50 (usually the concentration that inhibits the measured activity by half) in test [1] (Homo sapiens, HeLa, DDPAC mini-gene, 48 h, read-out: IC50, inhibition of luciferase activity (exon 10 inclusion)) was 600 ± 300 nM; in the test on WT SRE RNA, roughly 2000 nM. In addition, the inhibition at 5 µM in test [2] is roughly 15%. In test [3], the “competition of the interaction of 3 with reporter” value was “competed dose dependently”.
